In patent publication US9315503B2, “Kinase inhibitors” (CHIESI FARMACEUTICI S.p.A., priority 2011, dated 2016):

Columns and labels:
[1] = biological target: T1, p38alpha (Homo sapiens, UniProt Q16539); experiment: P38Alpha enzyme inhibition assay (Alphascreen kinase activity assay); type: biochemical; conditions: 100 pM p38alpha, 250 μM ATP, 2 hours pre-incubation at 25° C., read-out: p38α inhibition (IC50 values)
T1 construct: purchased Invitrogen PV3304
Outline: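 AlphaScreen read-out: after an EDTA stop, an anti-phospho-ATF2 antibody with Protein A acceptor and donor beads measured substrate phosphorylation. Compounds sat 2 h at 25°C with 100 pM p38α and 0.3 µg/ml ATF-2 fusion protein (pH 7.5, 1% DMSO) before 250 µM ATP was added for 1 h. IC50 from dose-response.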

[2] = system: LPS-stimulated TNFα release from PBMCs; experiment: LPS-stimulated PBMC TNFα release assay; type: cell-based; conditions: inhibition of TNFα release, human PBMCs, LPS 10 ng/ml, 18 h, ELISA, read-out: p38α inhibition (IC50 values)
Outline: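 TNFα in supernatants measured by ELISA after 18 h LPS (10 ng/ml) challenge of human PBMCs given 1 h compound pretreatment at 37 °C in medium with 1% FBS. Percent inhibition versus control release fitted to dose-response curves for IC50; at least three independent runs.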

[3] = system: BAL cell influx induced by TS; experiment: Pre-clinical mouse model of COPD: tobacco smoke induced pulmonary inflammation; type: in vivo; conditions: mice, 3, 30 or 100 μg/kg, intranasal route, 4 daily TS exposures, BAL 24 h after final exposure (FIG. 1)
Source text: Pre-Clinical Mouse Model of COPD Tobacco Smoke Induced Pulmonary Inflammation.
This timepoint was used in the studies reported here.
Protocols for the exposure of mice to TS, obtaining bronchoalveolar lavage fluid (BALF) and preparation of cytospin slides for differential cell counts are as outlined below.
Daily Exposure of Mice to TS for 4 Consecutive Days.
In this exposure protocol, mice were exposed in groups of 5 in individual clear polycarbonate chambers (27 cm×16 cm×12 cm). The TS from the cigarettes was allowed to enter the exposure chambers at a flow rate of 100 ml/min. In order to minimise any potential problems caused by repeated exposure to a high level of TS, the exposure of the mice to TS was increased gradually over the exposure period to a maximum of 6 cigarettes. […]
Lavage fluid was separated from cells by centrifugation and the supernatant decanted and frozen for subsequent analyses. The cell pellet was re-suspended in a known volume of PBS and total cell numbers calculated by counting a stained (Turks stain) aliquot under a microscope using a haemocytometer. […]
The residual cell pellet was diluted to approximately 10^5 cells per ml. […] Approximately four hundred cells were counted by an unbiased operator using light microscopy. […]
All results are presented as individual data points for each animal and the mean value was calculated for each group. […]

T1 sequence (Q16539 whole entry): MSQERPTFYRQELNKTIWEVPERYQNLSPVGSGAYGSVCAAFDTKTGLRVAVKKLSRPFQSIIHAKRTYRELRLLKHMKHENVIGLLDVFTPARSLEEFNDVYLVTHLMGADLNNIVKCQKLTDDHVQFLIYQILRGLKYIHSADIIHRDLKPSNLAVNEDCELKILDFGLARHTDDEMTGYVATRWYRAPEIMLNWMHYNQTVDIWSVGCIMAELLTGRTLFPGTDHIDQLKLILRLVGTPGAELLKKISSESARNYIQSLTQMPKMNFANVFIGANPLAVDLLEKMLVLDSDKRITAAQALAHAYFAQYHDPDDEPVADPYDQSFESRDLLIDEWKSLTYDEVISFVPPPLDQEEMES

IC50 [1]: < 10 nM
Structure (SMILES): Cc1ccc(-n2nc(C(C)(C)C)cc2NC(=O)N[C@H]2CC[C@@H](Oc3ccc4nnc([C@@H]5CCCN5C)n4c3)c3ccccc32)cc1 [Example 5, 1-(5-tert-Butyl-2-p-tolyl-2H-pyrazol-3-yl)-3-[(1S,4R)-4-[3-((S)-1-methyl-pyrrolidin-2-yl)-[1,2,4]triazolo[4,3-a]pyridin-6-yloxy)-1,2,3,4-tetrahydro-naphthalen-1-yl]-urea]
IC50 [2]: < 10 nM
BAL cell influx induced by TS [3]: significantly inhibited
